Measured values from patent publication US11993573B2, “Chromane-substituted, tetrahydroquinoline-substituted and thiochromane-substituted heteroarotinoids as anti-cancer agents” (THE BOARD OF REGENTS FOR OKLAHOMA STATE UNIVERSITY, priority 2018, dated 2024).
Like-named read-outs stand apart in the source and are kept apart here.

Assays:
[1] = test system: human ovarian cancer cell line A2780; assay: Growth inhibition assay (CellTiter 96 Non-Rad Cell Proliferation Assay); assay type: cell-based; details: for IC50 compared with SHetA2 / efficacy compared with SHetA2: comparison in words; for IC50 compared with SHetA2: 'exceeded' = lower IC50 in Table 1
Description: To illustrate the general activity of the compounds inhibiting growth of human […] ovarian cancer cells, selected compounds were synthesized and evaluated. The compounds were dissolved in DMSO at a concentration of 0.01 M. The human ovarian cancer cell line A2780 was plated in 96-well tissue culture dishes at a concentration of 3000 cells per well in RPMI medium supplemented with 10% fetal bovine serum and a mixture of antibiotics and antimycotics. The next day, the cultures were treated in triplicate with compound concentrations ranging from 2 μM to 8 μM increments. For compound 12, additional experiments were performed with concentrations of 10 μM and a series of two-fold dilutions to 156 nM. Control cultures were treated with DMSO solvent only. After 72 h of incubation, the […] 96® Non-Rad Cell Proliferation Assay (Promega) was used to quantify the remaining metabolically living cells. After subtracting blank values, the optical density (OD) readouts of the assay for the treated cultures were normalized with the average OD of the control cultures. For each compound, the experiment was repeated at least once, resulting in a minimum of 6 dose-response curves. For SHetA2, 24 response curves were available for statistical fitting parameters. A custom program was written in GNU Octave, a free software compatible with Matlab, to fit the dose-response curves with a four-parameter sigmoid function, extracting the IC50 and efficacy (the maximal % growth inhibition) parameters.
To illustrate the useful biological activity of these chroman-substituted and tetrahydroquinoline-substituted heteroarotinoids, the compounds were screened against human […] ovarian cancer cells.

[2] = Homo sapiens, A2780, 72 h, Table 2, tetrahydroquinoline-containing members
[3] = Homo sapiens, A2780, 72 h, Table 2, maximal % growth inhibition, A2780, 72 h, read-out: Efficacy
[4] = Homo sapiens, A2780, 72 h, Table 1, chroman-containing series
[5] = Homo sapiens, A2780, 72 h, Table 1, maximal % growth inhibition, A2780, 72 h, read-out: Efficacy
[6] = Homo sapiens, A2780, Table 3, 14 series (thiochroman), A2780
[7] = Homo sapiens, A2780, Table 3, 14 series, A2780, read-out: % Efficacy

melting point [°C] | IC50 [1, 2] [µM] | IC50 [1, 4] [µM] | Compound | Emax [1, 3] [%] | Emax [1, 5] [%] | further results
69 to 71 | 7.1 | – | CC1(C)CCNc2ccc(NC(=S)Nc3ccc(OC(F)(F)F)cc3)cc21 [Compound 9d, 1-(4,4-Dimethyl-1,2,3,4-tetrahydroquinolin-6-yl)-3-(4-(trifluoromethoxy)phenyl)thiourea] | 24 | – | –
180 to 181 | – | 3 | CCC1(CC)CC(CC)(CC)c2cc(NC(=O)Nc3ccc(OC(F)(F)F)cc3)ccc2O1 [Compound 8d, 1-(2,2,4,4-Tetraethylchroman-6-yl)-3-(4-(trifluoromethoxy)phenyl)urea] | – | 67 | IC50 compared with SHetA2 ([1]; A2780): exceeded
213 to 215 | 6.7 | – | CN1c2ccc(NC(=O)Nc3ccc(C(F)(F)F)cc3)cc2C(C)(C)C(O)C1(C)C (centres unmarked) [Compound 13c, 1-(3-Hydroxy-1,2,2,4,4-pentamethyl-1,2,3,4-tetrahydroquinolin-6-yl)-3-(4-(trifluoromethyl)phenyl)urea] | 25 | – | –
145 to 147 | 4.4 | – | CN1c2ccc(NC(=S)Nc3ccc([N+](=O)[O-])cc3)cc2C(C)(C)C(=O)C1(C)C [Compound 11b, 1-(4-Nitrophenyl)-3-(1,2,2,4,4-pentamethyl-3-oxo-1,2,3,4-tetrahydroquinolin-6-yl)thiourea] | 91.4 | – | –
188 to 189 | 7.8 | – | CN1c2ccc(NC(=O)Nc3ccc(OC(F)(F)F)cc3)cc2C(C)(C)C(O)C1(C)C (centres unmarked) [Compound 13e, 1-(3-Hydroxy-1,2,2,4,4-pentamethyl-1,2,3,4-tetrahydroquinolin-6-yl)-3-(4-(trifluoromethoxy)phenyl)urea] | 23.6 | – | –
215 to 217 | 8.4 | – | CN1c2ccc(NC(=O)Nc3ccc([N+](=O)[O-])cc3)cc2C(C)(C)C(O)C1(C)C (centres unmarked) [Compound 13a, 1-(3-Hydroxy-1,2,2,4,4-pentamethyl-1,2,3,4-tetrahydroquinolin-6-yl)-3-(4-nitrophenyl)urea] | 26 | – | –
165 to 166 | – | 2 | CCC1(CC)CC(CC)(CC)c2cc(NC(=O)Nc3ccc(C(F)(F)F)cc3)ccc2O1 [Compound 8c, 1-(2,2,4,4-Tetraethylchroman-6-yl)-3-(4-(trifluoromethyl)phenyl)urea] | – | 86.2 | IC50 compared with SHetA2 ([1]; A2780): exceeded
200 to 201 | 3.8 | – | CN1c2ccc(NC(=O)Nc3ccc([N+](=O)[O-])cc3)cc2C(C)(C)C(=O)C1(C)C [Compound 11a, 1-(4-Nitrophenyl)-3-(1,2,2,4,4-pentamethyl-3-oxo-1,2,3,4-tetrahydroquinolin-6-yl)urea] | 94.8 | – | –
219 to 220 | 6.9 | – | CC1(C)CCNc2ccc(NC(=O)Nc3ccc([N+](=O)[O-])cc3)cc21 [Compound 9a, 1-(4,4-Dimethyl-1,2,3,4-tetrahydroquinolin-6-yl)-3-(4-nitrophenyl)urea] | 17.1 | – | –
198 to 199 | 2.58 | – | CN1c2ccc(NC(=O)Nc3ccc(C(F)(F)F)cc3)cc2C(C)(C)C(=O)C1(C)C [Compound 11c, 1-(1,2,2,4,4-Pentamethyl-3-oxo-1,2,3,4-tetrahydroquinolin-6-yl)-3-(4-(trifluoromethyl)phenyl)urea] | 90.1 | – | –
– | 7.7 | – | CN1c2ccc(NC(=O)Nc3ccc(N)cc3)cc2C(C)(C)C(=O)C1(C)C [Compound 11g, 1-(4-Aminophenyl)-3-(1,2,2,4,4-pentamethyl-3-oxo-1,2,3,4-tetrahydroquinolin-6-yl)urea] | 24 | – | –
– | – | 2.09 | CCC1(CC)CC(CC)(CC)c2cc(NC(=O)Nc3ccc([N+](=O)[O-])cc3)ccc2O1 [Compound 8b, 1-(4-Nitrophenyl)-3-(2,2,4,4-tetraethylchroman-6-yl)urea] | – | 91.4 | efficacy compared with SHetA2 ([1]; A2780): exceeded the efficacy of SHetA2; IC50 compared with SHetA2 ([1]; A2780): exceeded

Continued, compound first:

Compound | melting point [°C] | IC50 [1, 2] [µM] | IC50 [1, 4] [µM] | Emax [1, 3] [%] | Emax [1, 5] [%] | further results
CC1(C)CC(C)(C)c2cc(NC(=O)Nc3ccc(OC(F)(F)F)cc3)ccc2O1 [Compound 3c, 1-(2,2,4,4-Tetramethylchroman-6-yl)-3-(4-(trifluoromethoxy)phenyl)urea] | 219 to 221 | – | 3.6 | – | 88.4 | efficacy compared with SHetA2 ([1]; A2780): exceeded the efficacy of SHetA2
CC1(C)CC(C)(C)c2cc(NC(=O)Nc3ccc(C#N)cc3)ccc2O1 [Compound 3b, 1-(4-Cyanophenyl)-3-(2,2,4,4-tetramethylchroman-6-yl)urea] | 225 to 226 | – | – | – | – | efficacy compared with SHetA2 ([1]; A2780): exceeded the efficacy of SHetA2
CN1c2ccc(NC(=S)Nc3ccc([N+](=O)[O-])cc3)cc2C(C)(C)CC1(C)C [Compound 12, 3-(1,2,2,4,4-Pentamethyl-1,2,3,4-tetrahydroquinolin-6-yl)-1-(4-nitrophenyl)thiourea] | 151 to 153 | 4.49 | – | 91.7 | – | –
CC1(C)CC(C)(C)c2cc(NC(=S)Nc3ccc(S(N)(=O)=O)cc3)ccc2O1 [Compound 2d, 4-(3-(2,2,4,4-Tetramethylchroman-6-yl)thioureido)benzenesulfonamide] | 186 to 187 | – | – | – | – | –
CCC1(CC)CC(C)(C)Oc2ccc(NC(=S)Nc3ccc(C(F)(F)F)cc3)cc21 [Compound 7b, 1-(4,4-Diethyl-2,2-dimethylchroman-6-yl)-3-(4-(trifluoromethyl)phenyl)thiourea] | 155 to 156 | – | 4.7 | – | 11.8 | –
CC1(C)CC(C)(C)c2cc(NC(=S)Nc3ccc(C(F)(F)F)cc3)ccc2O1 [Compound 2c, 1-(2,2,4,4-Tetramethylchroman-6-yl)-3-(4-(trifluoromethyl)phenyl)thiourea] | 166 to 168 | – | 4.7 | – | 22 | –
CCC1(CC)CC(C)(C)c2cc(NC(=O)Nc3ccc(C(F)(F)F)cc3)ccc2O1 [Compound 6c, 1-(2,2-Diethyl-4,4-dimethylchroman-6-yl)-3-(4-(trifluoromethyl)phenyl)urea] | 208 to 210 | – | 2.45 | – | 92.4 | efficacy compared with SHetA2 ([1]; A2780): exceeded the efficacy of SHetA2; IC50 compared with SHetA2 ([1]; A2780): exceeded
CC1(C)CCOc2ccc(NC(=S)Nc3ccc(C(F)(F)F)cc3)cc21 [Compound 4b, 1-(4,4-Dimethylchroman-6-yl)-3-(4-(trifluoromethyl)phenyl)thiourea] | 147 to 149 | – | 5.5 | – | 28 | –
CCC1(CC)CC(C)(C)Oc2ccc(NC(=O)Nc3ccc(C(F)(F)F)cc3)cc21 [Compound 7d, 1-(4,4-Diethyl-2,2-dimethylchroman-6-yl)-3-(4-(trifluoromethyl)phenyl)urea] | 225 to 226 | – | 2.43 | – | 93.3 | efficacy compared with SHetA2 ([1]; A2780): exceeded the efficacy of SHetA2; IC50 compared with SHetA2 ([1]; A2780): exceeded
CC1(C)CCOc2ccc(NC(=S)Nc3ccc(OC(F)(F)F)cc3)cc21 [Compound 4c, 1-(4,4-Dimethylchroman-6-yl)-3-(4-(trifluoromethoxy)phenyl)thiourea] | 153 to 154 | – | 4.3 | – | 16 | –
CC1(C)CC(C)(C)c2cc(NC(=O)Nc3ccc(C(F)(F)F)cc3)ccc2O1 [Compound 3a, 1-(2,2,4,4-Tetramethylchroman-6-yl)-3-(4-(trifluoromethyl)phenyl)urea] | 245 to 246 | – | 4.1 | – | 79 | –
CCC1(CC)CC(C)(C)c2cc(NC(=O)Nc3ccc([N+](=O)[O-])cc3)ccc2O1 [Compound 6b, 1-(2,2-Diethyl-4,4-dimethylchroman-6-yl)-3-(4-nitrophenyl)urea] | – | – | 2.17 | – | 93.3 | efficacy compared with SHetA2 ([1]; A2780): exceeded the efficacy of SHetA2; IC50 compared with SHetA2 ([1]; A2780): exceeded
CC1(C)CC(C)(C)c2cc(NC(=S)NCc3ccccc3)ccc2S1 [Compound 14j, 1-Benzyl-3-(2,2,4,4-tetramethylthiochroman-6-yl)thiourea] | – | – | – | – | – | IC50 [1, 6]: 3.03 ± 0.47 µM; Emax [1, 7]: 85.6 ± 0.6%; efficacy compared with SHetA2 ([1]; A2780): exceeded that of SHetA2 in efficacy
CC1(C)CC(C)(C)c2cc(NC(=S)NNC(=O)c3ccc(OC(F)(F)F)cc3)ccc2S1 [Compound 14t, N-(2,2,4,4-Tetramethylthiochroman-6-yl)-2-(4-(trifluoromethoxy)benzoyl)hydrazine-1-carbothioamide] | – | – | – | – | – | IC50 [1, 6]: 3.6 ± 0.18 µM; Emax [1, 7]: 57.4 ± 0.4%
CCOC(=O)c1ccc(NC(=S)Nc2ccc3c(c2)C(C)(C)CC(C)(C)O3)cc1 [Compound 2b, Ethyl 4-(3-(2,2,4,4-Tetramethylchroman-6-yl)thioureido)benzoate] | – | – | 4.3 | – | 26 | –
CC1(C)CCOc2ccc(NC(=O)Nc3ccc(C(F)(F)F)cc3)cc21 [Compound 5b] | – | – | – | – | – | IC50 ([1]; Table 1, chroman-containing series, A2780, 72 h): 5 µM; Efficacy ([1]; Table 1, maximal % growth inhibition, A2780, 72 h): 47%
